Experimental data: PubChem BioAssay AID1963866 (Molecular Pharmacology Branch, DTP, NCI, 2024)

Test system: PDC KRAS tumor spheroids with HUVEC/MSC, viability
Assay: Anticancer human tumor 349418-098-R-PDC patient-derived lung adenocarcinoma cell line growth inhibition [KRAS2]
Settings: for viability, T/C: stronger effect = lower value
Summary of the method: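 Combination screen of spheroid viability in tumor-cell co-cultures with endothelial (HUVEC) and mesenchymal stem cell stroma. Each agent was tested in half-log dilutions, topping at clinical Cmax or at 10 microM without a known Cmax.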

[1] = curve of first compound, second compound 0.1 µM
[2] = curve of first compound, second compound 0.316 µM
[3] = curve of first compound, second compound 1 µM
[4] = curve of first compound, second compound 3.16 µM
[5] = curve of first compound, second compound 10 µM
[6] = second compound 0.1 µM, first compound 0.01 µM
[7] = second compound 0.1 µM, first compound 0.0316 µM
[8] = second compound 0.1 µM, first compound 0.1 µM
[9] = second compound 0.1 µM, first compound 0.316 µM
[10] = second compound 0.1 µM, first compound 1 µM
[11] = second compound 0.1 µM, first compound 3.16 µM
[12] = second compound 0.316 µM, first compound 0.01 µM
[13] = second compound 0.316 µM, first compound 0.0316 µM
[14] = second compound 0.316 µM, first compound 0.1 µM
[15] = second compound 0.316 µM, first compound 0.316 µM
[16] = second compound 0.316 µM, first compound 1 µM
[17] = second compound 0.316 µM, first compound 3.16 µM
[18] = second compound 1 µM, first compound 0.01 µM
[19] = second compound 1 µM, first compound 0.0316 µM
[20] = second compound 1 µM, first compound 0.1 µM
[21] = second compound 1 µM, first compound 0.316 µM
[22] = second compound 1 µM, first compound 1 µM
[23] = second compound 1 µM, first compound 3.16 µM
[24] = second compound 3.16 µM, first compound 0.01 µM
[25] = second compound 3.16 µM, first compound 0.0316 µM
[26] = second compound 3.16 µM, first compound 0.1 µM
[27] = second compound 3.16 µM, first compound 0.316 µM
[28] = second compound 3.16 µM, first compound 1 µM
[29] = second compound 3.16 µM, first compound 3.16 µM
[30] = second compound 10 µM, first compound 0.01 µM
[31] = second compound 10 µM, first compound 0.0316 µM
[32] = second compound 10 µM, first compound 0.1 µM
[33] = second compound 10 µM, first compound 0.316 µM
[34] = second compound 10 µM, first compound 1 µM
[35] = second compound 10 µM, first compound 3.16 µM
[36] = second compound 0.1 µM, first compound 0.00316 µM
[37] = second compound 0.316 µM, first compound 0.00316 µM
[38] = second compound 1 µM, first compound 0.00316 µM
[39] = second compound 3.16 µM, first compound 0.00316 µM
[40] = second compound 10 µM, first compound 0.00316 µM
[41] = second compound 0.1 µM, first compound 10 µM
[42] = second compound 0.316 µM, first compound 10 µM
[43] = second compound 1 µM, first compound 10 µM
[44] = second compound 3.16 µM, first compound 10 µM
[45] = second compound 10 µM, first compound 10 µM
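Also: spheroids exposed to compounds for seven days before readout.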

Compound	IC50 [1] [µM]	IC50 [2] [µM]	IC50 [3] [µM]	IC50 [4] [µM]	IC50 [5] [µM]	viability, T/C [7] [%]	viability, T/C [8] [%]	viability, T/C [9] [%]	viability, T/C [10] [%]	viability, T/C [13] [%]	viability, T/C [14] [%]	viability, T/C [15] [%]	viability, T/C [16] [%]	viability, T/C [19] [%]	viability, T/C [20] [%]	viability, T/C [21] [%]	viability, T/C [25] [%]	viability, T/C [26] [%]	viability, T/C [31] [%]	viability, T/C [32] [%]	other results
CC(=O)OC12COC1CC(O)C1(C)C(=O)C(O)C3=C(C)C(OC(=O)C(O)C(NC(=O)OC(C)(C)C)c4ccccc4)CC(O)(C(OC(=O)c4ccccc4)C21)C3(C)C (configuration not stated) + C=CC(=O)N1CCN(c2nc(=O)n(-c3c(C)ccnc3C(C)C)c3nc(-c4c(O)cccc4F)c(F)cc23)C(C)C1	< 0.01	< 0.01	< 0.01	< 0.01	< 0.01	12.3	16	14.9	24	12.7	16.7	17.9	18	14.2	11.6	14.8	13.1	13.4	11	9.81	viability, T/C [6]: 11.3%; viability, T/C [11]: 21.2%; viability, T/C [12]: 10.2%; viability, T/C [17]: 20.1%; viability, T/C [18]: 11.1%; viability, T/C [22]: 20.5%; viability, T/C [23]: 18.3%; viability, T/C [24]: 9.17%; viability, T/C [27]: 12.6%; viability, T/C [28]: 15.5%; viability, T/C [29]: 15.9%; viability, T/C [30]: 9.5%; viability, T/C [33]: 9.76%; viability, T/C [34]: 11.7%; viability, T/C [35]: 11.9%
CN(C)C/C=C/C(=O)Nc1cc2c(Nc3ccc(F)c(Cl)c3)ncnc2cc1O[C@H]1CCOC1 + CC1OCC2(CCN(c3cnc(Sc4ccnc(N)c4Cl)c(N)n3)CC2)C1N	> 0.1	> 0.1	> 0.1	> 0.1	> 0.1	119	103	–	–	117	115	–	–	116	105	–	96	88.1	104	95.8	viability, T/C (second compound 0.1 µM, first compound 0.000316 µM): 84.1%; viability, T/C (second compound 0.1 µM, first compound 0.001 µM): 95.7%; viability, T/C [36]: 105%; viability, T/C [6]: 114%; viability, T/C (second compound 0.316 µM, first compound 0.000316 µM): 106%; viability, T/C (second compound 0.316 µM, first compound 0.001 µM): 105%; viability, T/C [37]: 109%; viability, T/C [12]: 110%; viability, T/C (second compound 1 µM, first compound 0.000316 µM): 92.3%; viability, T/C (second compound 1 µM, first compound 0.001 µM): 111%; viability, T/C [38]: 97.4%; viability, T/C [18]: 107%; viability, T/C (second compound 3.16 µM, first compound 0.000316 µM): 99.1%; viability, T/C (second compound 3.16 µM, first compound 0.001 µM): 107%; viability, T/C [39]: 105%; viability, T/C [24]: 102%; viability, T/C (second compound 10 µM, first compound 0.000316 µM): 99.2%; viability, T/C (second compound 10 µM, first compound 0.001 µM): 117%; viability, T/C [40]: 108%; viability, T/C [30]: 110%
COC(=O)c1ccc2c(C(=Nc3ccc(N(C)C(=O)CN4CCN(C)CC4)cc3)c3ccccc3)c(O)[nH]c2c1 + CNCc1ccccc1-c1csc(C(C)Nc2nc(C)nc3cc(OC)c(OC)cc23)c1	0.445	0.27	0.0536	< 0.0316	< 0.0316	84.1	96.6	55.8	29.8	75.3	84.9	42.5	25.7	56.5	41.4	27.6	0.32	0.25	0.09	0.07	viability, T/C [11]: 12.4%; viability, T/C [41]: 12.9%; viability, T/C [17]: 6.84%; viability, T/C [42]: 13%; viability, T/C [22]: 10.6%; viability, T/C [23]: 1.75%; viability, T/C [43]: 1.57%; viability, T/C [27]: 0.19%; viability, T/C [28]: 0.06%; viability, T/C [29]: 0.13%; viability, T/C [44]: 0.15%; viability, T/C [33]: 0.06%; viability, T/C [34]: 0.06%; viability, T/C [35]: 0.05%; viability, T/C [45]: 0.09%
CC1(C)CCC(CN2CCN(c3ccc(C(=O)NS(=O)(=O)c4ccc(NCC5CCOCC5)c([N+](=O)[O-])c4)c(Oc4cnc5[nH]ccc5c4)c3)CC2)=C(c2ccc(Cl)cc2)C1	–	–	–	–	–	–	–	–	–	–	–	–	–	–	–	–	–	–	–	–	viability, T/C (compound 0.0316 µM): 101% [middle of 5 runs]; viability, T/C (compound 0.1 µM): 97.5% [middle of 5 runs]; viability, T/C (compound 0.316 µM): 91.1% [middle of 5 runs]; viability, T/C (compound 1 µM): 88.3% [middle of 5 runs]; viability, T/C (compound 3.16 µM): 21.2% [middle of 5 runs]; viability, T/C (compound 10 µM): 5.14% [middle of 5 runs]; IC50 (curve of compound): 1.89 µM [middle of 5 runs]
Cn1nccc1Nc1nccc(-c2cc3c(s2)C(C)(C)N(CCN2CCOCC2)C3=O)n1 + C=CC(=O)N1CCN(c2nc(=O)n(-c3c(C)ccnc3C(C)C)c3nc(-c4c(O)cccc4F)c(F)cc23)C(C)C1	0.0855	0.0643	0.0676	0.0374	< 0.0316	75.7	46.1	23.6	13.3	72.4	29.5	30.2	18.7	64.9	39.1	33.6	53	34.9	32.6	19.6	viability, T/C [11]: 10.8%; viability, T/C [41]: 7.2%; viability, T/C [17]: 12.2%; viability, T/C [42]: 7.24%; viability, T/C [22]: 18.3%; viability, T/C [23]: 13.3%; viability, T/C [43]: 9.7%; viability, T/C [27]: 25.7%; viability, T/C [28]: 16.5%; viability, T/C [29]: 9.89%; viability, T/C [44]: 8.92%; viability, T/C [33]: 16.1%; viability, T/C [34]: 13.9%; viability, T/C [35]: 9.06%; viability, T/C [45]: 6.64%
CCN1CCN(Cc2ccc(Nc3ncc(F)c(-c4cc(F)c5nc(C)n(C(C)C)c5c4)n3)nc2)CC1 + COc1cc2nc(C)nc(NC(C)c3cc(N)cc(C(F)(F)F)c3)c2cc1OC1CCOC1	< 0.00316	0.00501	0.00563	< 0.00316	< 0.00316	25.5	20.2	14.2	5.42	16.6	16.1	13.6	4.29	14.2	13.4	10.5	14.5	11.7	4.11	2.43	viability, T/C [36]: 49.7%; viability, T/C [6]: 25.8%; viability, T/C [37]: 61.8%; viability, T/C [12]: 33%; viability, T/C [38]: 69.3%; viability, T/C [18]: 31.1%; viability, T/C [22]: 4.38%; viability, T/C [39]: 40.8%; viability, T/C [24]: 25%; viability, T/C [27]: 8.46%; viability, T/C [28]: 1.57%; viability, T/C [40]: 11.7%; viability, T/C [30]: 8.02%; viability, T/C [33]: 0.61%; viability, T/C [34]: 0.15%
